Assay type in all cases: cell-based
The target in one data set is T1, CXCR4 receptor (Homo sapiens, UniProt P61073).
T1 construct: expressed in transfected cells; host or cells: HEK-293 cells (stably expressing human macrophage scavenger receptor) transduced with human CXCR4 BacMam and Gqi5 BacMam
As to the kind of experiment: Functional FLIPR assay (block of SDF-1 alpha induced [Ca2+]i change). To be noted: HEK-293 cells, human CXCR4 BacMam and Gqi5 BacMam, read-out: Functional assay (pIC50) (converted). How it is done: Human embryonic kidney (HEK-293) cells were maintained and harvested as described above. Cells were plated in 96-well, black clear bottom, poly-lysine coated plates at a concentration of 40,000 cells per well in a final volume of 100 ul containing human CXCR4BacMam (MOI=25) and Gqi5 BacMam (MOI=12.5). The cells were incubated at 37° C., 5% CO2, 95% humidity for 24 h to allow for protein expression.
After the required incubation time the cells were washed once with 50 ul of fresh serum-free DMEM/F12 media containing probenicid. 50 ul of dye solution was then added to the cells (Calcium Plus Assay Kit Dye; Molecular Devices) was dissolved in 200 ml of the above probenicid/BSA containing media and incubated for 1 h. Cell plates were transferred to a Fluorometric Imaging Plate Reader (FLIPR). Upon addition the effect of the compounds on the change in [Ca^2+]i was examined to determine if the compounds were agonists or antagonists (ability to block SDF-1 alpha activity) at the CXCR4 receptor. IC50 values are determined and pKb values are calculated using the Leff and Dougall equation: KB═IC50/((2+([agonist]/EC50̂b)̂1/b−1) Where IC50 is that defined by the antagonist concentration-response curve [agonist)] is the EC80 concentration of agonist used EC50 is that defined by the agonist concentration-response curve b is the slope of the agonist concentration-response curve.

Data set [1] has as its system HIV-1 gp160 (HXB2 strain) mediated cell/cell fusion. The experiment in a line: Cell/cell fusion assay (HOS hCXCR4/hCCR5/hCD4/pHIV-LTR-luciferase cells with HEK-293 cells expressing HIV-1 tat, rev, gp160), luciferase readout. To be noted: Homo sapiens, HEK293, 24 h, read-out: Fusion assay (pIC50) (converted). From the text: The complete coding sequences of HIV-1 tat (GenBank Accession No. X07861) and rev (GenBank Accession No. M34378) were cloned into pcDNA3.1 expression vectors containing G418 and hygromycin resistance genes, respectively. The complete coding sequence of the HIV-1 (HXB2 strain) gp160 envelope gene (nucleotide bases 6225-8795 of GenBank Accession No. K03455) was cloned into plasmid pCRII-TOPO. The three HIV genes were additionally inserted into the baculovirus shuttle vector, pFastBacMam1, under the transcriptional control of the CMV promoter. A construction of the pHIV-1 LTR containing mutated NFkB sequences linked to the luciferase reporter gene was prepared by digesting pcDNA3.1, containing the G418 resistance gene, with Nru I and Bam HI to remove the CMV promoter. LTR-luc was then cloned into the Nru I/Bam HI sites of the plasmid vector. Plasmid preparations were performed after the plasmids were amplified in Escherichia coli strain DH5-alpha. The fidelity of the inserted sequences was confirmed by double-strand nucleotide sequencing using an ABI Prism Model 377 automated sequencer.
Recombinant BacMam baculoviruses were constructed from pFastBacMam shuttle plasmids by using the bacterial cell-based Bac-to-Bac system. Viruses were propagated in Sf9 (Spodoptera frugiperda) cells cultured in Hink's TNM-FH Insect media supplemented with 10% (v/v) fetal bovine serum and 0.1% (v/v) pluronic F-68 according to established protocols.
Human osteosarcoma (HOS) cells that naturally express human CXCR4 were transfected with human CCR5, human CD4 and the pHIV-LTR-luciferase plasmid using FuGENE 6 transfection reagent. Single cells were isolated and grown under selection condition in order to generate a stable HOS (hCXCR4/hCCR5/hCD4/pHIV-LTR-luciferase) clonal cell line. The cells were maintained in Dulbeccos modified Eagles media supplemented with 10% fetal calf serum (FCS), G418 (400 ug/ml), puromycin (1 ug/ml), mycophenolic acid (40 ug/ml), xanthine (250 ug/ml) and hypoxanthine (13.5 ug/ml) to maintain a selection pressure for cells expressing the LTR-luciferase, hCCR5 and hCD4, respectively. Human embryonic kidney (HEK-293) cells stably transfected to express the human macrophage scavenging receptor (Class A, type 1; GenBank Accession No. D90187), were maintained in DMEM/F-12 media (1:1) supplemented with 10% FCS and 1.5 ug/ml puromycin. The expression of this receptor by the HEK-293 cells enhances their ability to stick to tissue culture treated plasticware.
HEK-293 cells were harvested using enzyme-free cell dissociation buffer. The cells were resuspended in DMEM/F-12 media supplemented with 10% FCS and 1.5 ug/ml and counted. Tranductions were performed by direct addition of BacMam baculovirus containing insect cell media to cells. The cells were simultaneously transduced with BacMam baculovirus expressing HIV-1 tat, HIV-1 rev and HIV-1 gp160 (from the HXB2 HIV strain). Routinely an MOI of 10 of each virus was added to the media containing the cells. 2 mM butyric acid was also added to the cells at this stage to increase protein expression in transduced cells. The cells were subsequently mixed and seeded into a flask at 30 million cells per T225. The cells were incubated at 37° C., 5% CO2, 95% humidity for 24 h to allow for protein expression.
HEK and HOS cells were harvested in DMEM/F-12 media containing 2% FCS and DMEM media containing 2% FCS, respectively, with no selection agents added. Compounds were plated as 1 ul spots in 100% DMSO on a 96-well CulturPlate plates. HOS cells (50 ul) were added first to the wells, followed immediately by the HEK cells (50 ul). The final concentration of each cell type was 20,000 cells per well. Following these additions, the cells were returned to a tissue culture incubator (37° C.; 5% CO2/95% air) for an additional 24 h.
Following the 24 h incubation, total cellular luciferase activity was measured using the LucLite Plus assay kit (Packard, Meridien, Conn.). […]

A short description of data set [2]: Compound cytotoxicity in HOS cells in the absence of virus (CellTiter-Glo). Particulars: human, no virus, read-out: Cytotox (pIC50) (converted). How it is done: Compounds were profiled against two HIV-1 viruses, the M-tropic (CCR5 utilizing) Ba-L strain and the T-tropic (CXCR4 utilizing) IIIB strain. Both viruses were propagated in human peripheral blood lymphocytes. Compounds were tested for there ability to block infection of the HOS cell line (expressing hCXCR4/hCCR5/hCD4/pHIV-LTR-luciferase) by either HIV-1 Ba-L or HIV-1 IIIB. Compound cytotoxicity was also examined in the absence of virus addition.
HOS cells (expressing hCXCR4/hCCR5/hCD4/pHIV-LTR-luciferase) were harvested and diluted in Dulbeccos modified Eagles media supplemented with 2% FCS and non-essential amino acid to a concentration of 60,000 cells/ml. The cells were plated into 96-well plates (100 ul per well) and the plates were placed in a tissue culture incubator (37° C.; 5% CO2/95% air) for a period of 24 h.
Subsequently, 50 ul of the desired drug solution (4 times the final concentration) was added to each well and the plates were returned to the tissue culture incubator (37° C.; 5% CO2/95% air) for 1 h. Following this incubation 50 ul of diluted virus was added to each well (approximately 2 million RLU per well of virus). The plates were returned to the tissue culture incubator (37° C.; 5% CO2/95% air) and were incubated for a further 96 h.
Following this incubation the endpoint for the virally infected cultures was quantified following addition of Steady-Glo Luciferase assay system reagent (Promega, Madison, Wis.). Cell viability or non-infected cultures was measured using a CellTiter-Glo luminescent cell viability assay system (Promega, Madison, Wis.). All luminescent readouts are performed on a Topcount luminescence detector (Packard, Meridien, Conn.).
For orientation: Cellular ATP, detected with luciferase, serves as a proxy for viable cell number.

In a further data set the test system is HIV-1 IIIB. The experiment in a line: HOS HIV-1 infectivity assay. A digest of the protocol:
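HOS cells expressing hCXCR4/hCCR5/hCD4 and an HIV-LTR-luciferase reporter, in DMEM with 2% FCS, were pre-treated with compound for 1 h, then infected with HIV-1 IIIB (~2 million RLU/well) for 96 h at 37° C. Infection was read by Steady-Glo luciferase; cytotoxicity in uninfected cultures by CellTiter-Glo.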

[3] abbreviates: Human immunodeficiency virus 1, IIIB, as determined by the infectivity assay, strain not stated in Table 2, read-out: Activity Level.
Setting [4] is: Human immunodeficiency virus 1, T-tropic (CXCR4 utilizing) IIIB strain, HOS cells, 96 h, read-out: HOS (3B).

Read-outs that look alike come from different tables or passages of the source.

T1 sequence (P61073 whole entry): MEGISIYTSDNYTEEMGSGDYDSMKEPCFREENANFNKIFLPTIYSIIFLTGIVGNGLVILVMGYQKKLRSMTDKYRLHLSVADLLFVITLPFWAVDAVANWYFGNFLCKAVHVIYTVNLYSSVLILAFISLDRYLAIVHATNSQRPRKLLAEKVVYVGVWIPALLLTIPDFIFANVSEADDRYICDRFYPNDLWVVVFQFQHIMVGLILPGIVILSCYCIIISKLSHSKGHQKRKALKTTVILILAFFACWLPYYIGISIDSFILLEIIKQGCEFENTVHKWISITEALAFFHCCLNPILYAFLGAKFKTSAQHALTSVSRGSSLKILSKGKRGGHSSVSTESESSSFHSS

On to `CN(Cc1nc2ccccc2n1Cc1cccnc1)C1CCCc2cccnc21` (stereo not drawn) [Example 3, N-Methyl-N-{[1-(3-pyridinylmethyl)-1H-benzimidazol-2-yl]methyl}-5,6,7,8-tetrahydro-8-quinolinamine], for which the IC50 was 398 nM at CXCR4 receptor, 1780 nM in data set [1], 500 to 10000 nM in the data set with HIV-1 IIIB (setting [3]) and 574 nM in the data set on HIV-1 IIIB (setting [4]). In addition, the IC50 at 96 h in data set [2] is more than 100000 nM.

As to `CN(Cc1nc2ccccc2n1CCN1CCCCC1)C1CCCc2cccnc21` (stereo not drawn) [Example 4, N-Methyl-N-({1-[2-(1-piperidinyl)ethyl]-1H-benzimidazol-2-yl}methyl)-5,6,7,8-tetrahydro-8-quinolinamine], the IC50 on CXCR4 receptor is 60.3 nM; in data set [1], 138 nM; in the data set with HIV-1 IIIB (setting [3]), 100 to 500 nM; with HIV-1 IIIB (setting [4]), 156 nM. Further, the IC50 at 96 h in data set [2] is more than 100000 nM.

For `CN(Cc1nc2ccccc2n1CCN1CCOCC1)C1CCCc2cccnc21` (stereo not drawn) [Example 5, N-Methyl-N-({1-[2-(4-morpholinyl)ethyl]-1H-benzimidazol-2-yl}methyl)-5,6,7,8-tetrahydro-8-quinolinamine], the IC50 at CXCR4 receptor is 123 nM; in data set [1], 200 nM; with HIV-1 IIIB (setting [3]), 100 to 500 nM; in the data set on HIV-1 IIIB (setting [4]), 225 nM. In addition, the IC50 at 96 h in data set [2] was more than 100000 nM.

`CN(Cc1nc2ccccc2n1CC1CCNCC1)C1CCCc2cccnc21` (stereo not drawn) [Example 6, N-Methyl-N-{[1-(4-piperidinylmethyl)-1H-benzimidazol-2-yl]methyl}-5,6,7,8-tetrahydro-8-quinolinamine]: the IC50 at CXCR4 receptor is 282 nM; in data set [1], 240 nM; with HIV-1 IIIB (setting [3]), less than 100 nM; in the data set on HIV-1 IIIB (setting [4]), 90 nM. Besides, in data set [2], the IC50 at 96 h was more than 100000 nM.

With `CN1CCCC(Cn2c(CN(C)C3CCCc4cccnc43)nc3ccccc32)C1` (stereo not drawn) [Example 7, N-Methyl-N-({1-[(1-methyl-3-piperidinyl)methyl]-1H-benzimidazol-2-yl}methyl)-5,6,7,8-tetrahydro-8-quinolinamine], the IC50 is 8.13 nM at CXCR4 receptor, 20.9 nM in data set [1], less than 100 nM with HIV-1 IIIB (setting [3]) and 19 nM with HIV-1 IIIB (setting [4]). Further, the IC50 at 96 h in data set [2] is more than 100000 nM.

`CN(Cc1nc2ccccc2n1CCN)C1CCCc2cccnc21` (stereo not drawn) [Example 18, N-{[1-(2-Aminoethyl)-1H-benzimidazol-2-yl]methyl}-N-methyl-5,6,7,8-tetrahydro-8-quinolinamine]: the results for the IC50 (at CXCR4 receptor; in data set [1]) were 166 nM and 316 nM, respectively. The IC50 at 96 h in data set [2] was more than 100000 nM.

Regarding `CN1CCC[C@H]1CN1CCC[C@H](Cn2c(CN(C)[C@H]3CCCc4cccnc43)nc3ccccc32)C1` [Example 106, (8S)—N-Methyl-N-({1-[((3S)-1-{[(2S)-1-methyl-2-pyrrolidinyl]methyl}-3-Piperidinyl)methyl]-1H-benzimidazol-2-yl}methyl)-5,6,7,8-tetrahydro-8-quinolinamine], in the data set on HIV-1 IIIB (setting [3]), the IC50 is less than 100 nM.

Take `CC(C)N1CCC[C@H]1CN1CCC[C@H](Cn2c(CN(C)[C@H]3CCCc4cccnc43)nc3ccccc32)C1` [Example 107, (8S)—N-Methyl-N-({1-[((3S)-1-{[(2S)-1-(1-methylethyl)-2-Pyrrolidinyl]methyl}-3-piperidinyl)methyl]-1H-benzimidazol-2-yl}methyl)-5,6,7,8-tetrahydro-8-quinolinamine]: the IC50 in the data set with HIV-1 IIIB (setting [3]) was less than 100 nM.

Consider `CN1CCC[C@@H]1CN1CCC[C@H](Cn2c(CN(C)[C@H]3CCCc4cccnc43)nc3ccccc32)C1` [Example 108, (8S)—N-Methyl-N-([1-[((3S)-1-{[(2R)-1-methyl-2-pyrrolidinyl]methyl}-3-piperidinyl)methyl]-1H-benzimidazol-2-yl]methyl)-5,6,7,8-tetrahydro-8-quinolinamine], for which the IC50 in the data set on HIV-1 IIIB (setting [3]) is less than 100 nM.

Regarding `CC(C)N1CCC[C@@H]1CN1CCC[C@H](Cn2c(CN(C)[C@H]3CCCc4cccnc43)nc3ccccc32)C1` [Example 109, (8S)—N-Methyl-N-({1-[((3S)-1-{[(2R)-1-(1-methylethyl)-2-pyrrolidinyl]methyl}-3-piperidinyl)methyl]-1H-benzimidazol-2-yl}methyl)-5,6,7,8-tetrahydro-8-quinolinamine], in the data set with HIV-1 IIIB (setting [3]), the IC50 fell in the range of 100 to 500 nM.

Turning to `CN(Cc1nc2ccccc2n1CCCN)[C@H]1CCCc2cccnc21` [Example 110, (8S)—N-{[1-(3-Aminopropyl)-1H-benzimidazol-2-yl]methyl}-N-methyl-5,6,7,8-tetrahydro-8-quinolinamine], in the data set with HIV-1 IIIB (setting [3]), the IC50 was less than 100 nM.
